Experimental data published in patent US5081116A, “Cephalosporin derivatives” (Yamanouchi Pharmaceutical Co., Ltd., priority 1989, dated 1992).
Converted amounts (≈) assume the structure as drawn. Read-outs that look alike come from different tables or passages of the source.

Tests used:
[1] = system: Staphylococcus epidermidis IID 866; test: Minimum growth inhibition concentration (antimicrobial activity); assay type: cell-based; conditions: IID866
Description: (§1) The antimicrobial activity of the 7-[2-(2-amino-4-thiazolyl)-2-(hydroxyimino)acetamido]-3-(1,3-dithiolan-2-yl)-3-cephem-4-carboxylic acid which is such that A of the compounds of the general formula is the hydrogen atom (Compound of Example 1) is shown in Table 1.
(§2) (Minimum Growth Inhibition Concentration, γ/ml)

Escherichia coli 0-1 = test: as above; assay type: cell-based; conditions: 01
Description: as §1, §2

[2] = system: Klebsiella pneumoniae ATCC 10031; test: as above; assay type: cell-based; conditions: ATCC10031
Description: as §1, §2

[3] = system: Staphylococcus aureus FDA 209P JC-1; test: as above; assay type: cell-based; conditions: FDA209P
Description: as §1, §2

CAY 1104 = test: as above; assay type: cell-based; conditions: Enterobacter Faecalis CAY 1104
Description: as §1, §2

[4] = Absorption rate from the digestive tract (urinary and biliary recovery after oral administration); assay type: in vivo; conditions: rat, 50 mg/kg, bioassay
Method: Further, the absorption rate of the compound of the general formula (I) wherein A is the 1-acetoxyethyl group (Compound of Example 2) from the digestive tract is shown as follows together with the testing method therefor.
An ether-anesthetized rat was fixed with the belly upside and a polyethylene tube was inserted into the bile-duct. The urine was collected from the same rat. After the test compound was orally administered at 50 mg/kg, urine and bile samples were collected within 0-6 hours and also within 6-24 hours. The amounts recovered in the urine and the bile within 24 hours were determined by measuring the test compound concentrations in the urine and the bile by a bioassay method using the standard solution of the test compound prepared with M/15 phosphate buffer.

MIC [1] [µg/mL]	MIC (Escherichia coli 0-1) [µg/mL]	MIC [2] [µg/mL]	MIC [3] [µg/mL]	MIC (CAY 1104) [µg/mL]	SMILES	dose excreted at 24 h ([4]; bile, read-out: Recovery Rate (%) within 24 hours In the Bile) [%]	dose excreted at 24 h ([4]; urine, read-out: Recovery Rate (%) within 24 hours In the Urine) [%]	dose excreted at 24 h ([4]; urine and bile, urine + bile, read-out: Recovery Rate (%) within 24 hours Total) [%]
0.39 (≈ 0.824 µM)	0.39 (≈ 0.824 µM)	0.78 (≈ 1.65 µM)	0.39 (≈ 0.824 µM)	3.13 (≈ 6.61 µM)	Nc1nc(/C(=N/O)C(=O)NC2C(=O)N3C(C(=O)O)=C(C4SCCS4)CS[C@H]23)cs1 (some centres unmarked) [Example 1, (Z)-7-[2-(2-amino-4-thiazolyl)-2-(hydroxyimino)acetamido]-3-(1,3-dithiolan-2-yl)3-cephem-4-carboxylic acid]			
					CC(=O)OC(C)OC(=O)C1=C(C2SCCS2)CS[C@@H]2C(NC(=O)/C(=N\O)c3csc(N)n3)C(=O)N12 (some centres unmarked) [Example 2, 1-acetoxyethyl (Z)-7-[2-(2-amino-4-thiazolyl)-2-(hydroxyimino)acetamido]-3-(1,3-dithiolan-2-yl)-3-cephem-4-carboxylate]	8.5	14.1	22.6
